The values below come from PubChem BioAssay AID328 (DTP/NCI, 2004).

The assay deals with BDF1 mice, P388 leukemia ip, median survival T/C. Briefly: NCI In Vivo Anticancer Drug Screen. Data for tumor model P388 Leukemia (intraperitoneal) in B6D2F1 (BDF1) mice. To be noted: endpoint: median survival time, higher = longer survival. The method in brief: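 Mice carrying the transplantable tumour receive compound or vehicle. Survival is followed in each arm, and the treated measure is divided by the vehicle measure.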

Setting [1] is: dose: 100.0 mg/kg/injection, schedule: Q01DX009 (ip), vehicle: saline with Tween-80.
Setting [2] is: dose: 100.0 mg/kg/injection, schedule: Q04DX003 (ip), vehicle: Klucel (hydroxypropylcellulose) (HPC).
Where [3] appears, read: dose: 200.0 mg/kg/injection, schedule: Q04DX003 (ip), vehicle: Klucel (hydroxypropylcellulose) (HPC).
Where [4] appears, read: dose: 50.0 mg/kg/injection, schedule: Q01DX009 (ip), vehicle: saline with Tween-80.
Where [5] appears, read: dose: 400.0 mg/kg/injection, schedule: Q04DX003 (ip), vehicle: Klucel (hydroxypropylcellulose) (HPC).
The mark [6] stands for this setting: dose: 100.0 mg/kg/injection, schedule: Q01DX001 (ip), vehicle: Klucel (hydroxypropylcellulose) (HPC).
[7] abbreviates: dose: 200.0 mg/kg/injection, schedule: Q01DX001 (ip), vehicle: Klucel (hydroxypropylcellulose) (HPC).
Where [8] appears, read: dose: 400.0 mg/kg/injection, schedule: Q01DX001 (ip), vehicle: Klucel (hydroxypropylcellulose) (HPC).

Values joined by “and” are separate entries in the source; they are usually repeats but may differ in a detail not shown here. Equal values may be shown once. Inconclusive results and toxic doses are left out.

Consider `CCNC(C)(C)C(SS)c1ccc(Br)cc1` (stereo unspecified), for which the T/C (dose: 6.25 mg/kg/injection, schedule: Q01DX009 (ip), vehicle: water) is 100 % of control; the T/C (dose: 12.5 mg/kg/injection, schedule: Q01DX009 (ip), vehicle: water) is 92 % of control; the T/C (dose: 25.0 mg/kg/injection, schedule: Q01DX009 (ip), vehicle: water) was 96 % of control; the T/C (dose: 25.0 mg/kg/injection, schedule: Q04DX003 (ip), vehicle: water) was 102 % of control; the T/C (dose: 50.0 mg/kg/injection, schedule: Q01DX009 (ip), vehicle: water) is 101 % of control; the T/C (dose: 50.0 mg/kg/injection, schedule: Q04DX003 (ip), vehicle: water) is 100 % of control. The T/C by setting is: (dose: 100.0 mg/kg/injection, schedule: Q01DX009 (ip), vehicle: water) 109 % of control; (dose: 100.0 mg/kg/injection, schedule: Q04DX003 (ip), vehicle: water) 102 % of control; (dose: 200.0 mg/kg/injection, schedule: Q01DX009 (ip), vehicle: water) 101 % of control; (dose: 200.0 mg/kg/injection, schedule: Q04DX003 (ip), vehicle: water) 106 % of control; (dose: 400.0 mg/kg/injection, schedule: Q04DX003 (ip), vehicle: water) 90 % of control.
`CN1C(=O)Nc2ccc(Cl)cc2C1(O)c1ccccc1` (stereo unspecified): the T/C under setting [1] is 89 % of control.
As to `Cc1ccc(NC(=O)c2ccc([N+](=O)[O-])cc2)c(C)c1`, the T/C (dose: 100.0 mg/kg/injection, schedule: Q04DX003 (ip), vehicle: saline with Tween-80) was 100 % of control; the T/C (dose: 200.0 mg/kg/injection, schedule: Q04DX003 (ip), vehicle: saline with Tween-80) was 104 % of control; the T/C (dose: 400.0 mg/kg/injection, schedule: Q04DX003 (ip), vehicle: saline with Tween-80) was 96 % of control.
On to `COC(=O)c1c(OC)ccc2c1CC1C3Nc4ccccc4C3CCN1C2` (stereo unspecified), for which the T/C (dose: 50.0 mg/kg/injection, schedule: Q04DX003 (ip), vehicle: saline sonified) is 100 % of control; the T/C (dose: 100.0 mg/kg/injection, schedule: Q04DX003 (ip), vehicle: saline sonified) was 100 % of control; the T/C (dose: 200.0 mg/kg/injection, schedule: Q04DX003 (ip), vehicle: saline sonified) is 100 % of control.
With `CCOC(=O)c1cnc(=S)[nH]c1N`, the T/C by setting is: (dose: 50.0 mg/kg/injection, schedule: Q01DX009 (ip), vehicle: Klucel (hydroxypropylcellulose) (HPC)) 95 % of control; (dose: 50.0 mg/kg/injection, schedule: Q04DX003 (ip), vehicle: Klucel (hydroxypropylcellulose) (HPC)) 109 % of control; (dose: 100.0 mg/kg/injection, schedule: Q01DX009 (ip), vehicle: Klucel (hydroxypropylcellulose) (HPC)) 100 % of control; under setting [2], 100 % of control; (dose: 200.0 mg/kg/injection, schedule: Q01DX009 (ip), vehicle: Klucel (hydroxypropylcellulose) (HPC)) 95 % of control; under setting [3], 109 % of control.
With `Cc1ccc(S(=O)(=O)OCCOC(=O)OCCOS(=O)(=O)c2ccc(C)cc2)cc1`, the T/C under setting [4] was 99 % of control; the T/C under setting [1] was 100 % of control; the T/C (dose: 200.0 mg/kg/injection, schedule: Q01DX009 (ip), vehicle: saline with Tween-80) is 99 % of control.
On to `O=C1CSC(=O)CS1`, for which the T/C was 99 % of control under setting [4] and 93 % of control under setting [1].
Take `CSc1ccc(NC(=O)CCl)cc1`: the T/C was 107 % of control (dose: 12.5 mg/kg/injection, schedule: Q01DX009 (ip), vehicle: saline with Tween-80); 105 % of control (dose: 25.0 mg/kg/injection, schedule: Q01DX009 (ip), vehicle: saline with Tween-80); 106 % of control under setting [4].
For `CC(=O)[C@]1(O)Cc2c(O)c3c(c(O)c2[C@@H](OC2CC(N)C(O)C(C)O2)C1)C(=O)c1c(O)cccc1C3=O` (stereo partly specified), the T/C is, setting by setting: (dose: 0.32 mg/kg/injection, schedule: Q04DX003 (ip), vehicle: water) 185 % of control; (dose: 0.39 mg/kg/injection, schedule: Q04DX003 (ip), vehicle: water) 203 % of control; (dose: 0.54 mg/kg/injection, schedule: Q04DX003 (ip), vehicle: water) 101 % of control; (dose: 0.9 mg/kg/injection, schedule: Q04DX003 (ip), vehicle: water) 92 % of control; (dose: 1.08 mg/kg/injection, schedule: Q04DX003 (ip), vehicle: water) 115 % of control.
Regarding `CCCCC(CC)C(=O)[O][Sn]([CH2]CCC)([CH2]CCC)[O]C(=O)C(CC)CCCC` (stereo unspecified), the T/C was 91 % of control (dose: 6.25 mg/kg/injection, schedule: Q04DX003 (ip), vehicle: acetone) and 95 % of control (dose: 12.5 mg/kg/injection, schedule: Q04DX003 (ip), vehicle: acetone).
Turning to `C#CCN(C)CCO`, the T/C runs as follows: (dose: 100.0 mg/kg/injection, schedule: Q01DX001 (ip), vehicle: saline) 105 % of control; (dose: 100.0 mg/kg/injection, schedule: Q04DX003 (ip), vehicle: alcohol) 90 % of control; (dose: 200.0 mg/kg/injection, schedule: Q01DX001 (ip), vehicle: saline) 95 % of control; (dose: 200.0 mg/kg/injection, schedule: Q04DX003 (ip), vehicle: alcohol) 100 % of control; (dose: 400.0 mg/kg/injection, schedule: Q01DX001 (ip), vehicle: saline) 100 % of control; (dose: 400.0 mg/kg/injection, schedule: Q04DX003 (ip), vehicle: alcohol) 100 % of control.
With `COC(=O)CCCCCCCC(=O)OCC#CC#CCOC(=O)CCCCCCCC(=O)OC`, the T/C is, setting by setting: under setting [2], 109 % of control; under setting [3], 104 % of control; under setting [5], 104 % of control.
For the molecule `Oc1ccc(I)c2cccnc12`, the T/C runs as follows: (dose: 62.5 mg/kg/injection, schedule: Q01DX010 (ip), vehicle: carboxymethylcellulose (CMC)) 90 % of control; (dose: 250.0 mg/kg/injection, schedule: Q01DX010 (ip), vehicle: carboxymethylcellulose (CMC)) 100 % of control; (dose: 500.0 mg/kg/injection, schedule: Q01DX010 (ip), vehicle: carboxymethylcellulose (CMC)) 110 % of control.
Take `Cc1c2ccc3ccccc3c2c[n+]2ccccc12`: the T/C runs as follows: (dose: 5.0 mg/kg/injection, schedule: Q01DX009 (ip), vehicle: saline with Tween-80) 118 % of control; (dose: 5.0 mg/kg/injection, schedule: Q04DX003 (ip), vehicle: saline with Tween-80) 108 % of control; (dose: 10.0 mg/kg/injection, schedule: Q01DX009 (ip), vehicle: saline with Tween-80) 86 % of control; (dose: 10.0 mg/kg/injection, schedule: Q04DX003 (ip), vehicle: saline with Tween-80) 108 % of control; (dose: 20.0 mg/kg/injection, schedule: Q04DX003 (ip), vehicle: saline with Tween-80) 116 % of control.
In the case of `CCCCCn1c(Cl)c(/C=N\Nc2ccc([N+](=O)[O-])cc2[N+](=O)[O-])c2ccccc21`, the T/C is 88 % of control (dose: 100.0 mg/kg/injection, schedule: Q04DX002 (ip), vehicle: Klucel (hydroxypropylcellulose) (HPC)); 89 % of control (dose: 200.0 mg/kg/injection, schedule: Q04DX002 (ip), vehicle: Klucel (hydroxypropylcellulose) (HPC)); 90 % of control (dose: 400.0 mg/kg/injection, schedule: Q04DX002 (ip), vehicle: Klucel (hydroxypropylcellulose) (HPC)).
Turning to `CCN(CC)CCNc1ccc(C)c2sc3ccccc3c(=O)c12`, the T/C (dose: 12.5 mg/kg/injection, schedule: Q01DX009 (ip), vehicle: saline) is 97 % of control; the T/C (dose: 25.0 mg/kg/injection, schedule: Q01DX009 (ip), vehicle: saline) was 109 % of control; the T/C (dose: 50.0 mg/kg/injection, schedule: Q01DX010 (ip), vehicle: saline) was 150 % of control and 170 % of control; the T/C (dose: 100.0 mg/kg/injection, schedule: Q01DX009 (ip), vehicle: saline) is 158 % of control; the T/C (dose: 100.0 mg/kg/injection, schedule: Q01DX010 (ip), vehicle: saline) was 90 % of control.
Regarding `Cc1ccc(NCC(O)CN2CCN(CC(O)CNc3ccc(C)cc3)CC2)cc1` (stereo unspecified), the T/C runs as follows: under setting [6], 104 % of control; under setting [7], 100 % of control; under setting [8], 86 % of control.
With `Cc1cc2c(cc1C)NC(=O)CC(=O)N2`, the T/C is 100 % of control under setting [2], 86 % of control under setting [3] and 86 % of control under setting [5].
In the case of `CC(=O)CC(=O)c1ccccc1`, the T/C reads like this: under setting [6], 112 % of control; under setting [2], 108 % of control; under setting [7], 95 % of control; under setting [3], 108 % of control; under setting [8], 91 % of control; under setting [5], 112 % of control.
